# Test results as given in paper PMC10054362, “Anti–Zika Virus Activity and Isolation of Flavonoids from Ethanol Extracts of Curatella americana L. Leaves” (Molecules, 2023).
# Values joined by “and” are separate entries in the source; they are usually repeats but may differ in a detail not shown here. Identical values can stand only once. Like-named read-outs stand apart in the source and are kept apart here.
# Experiments:
# MRC-5 cells = assay: Cytotoxicity evaluation by MTT assay in MRC-5 cells; type: cell-based, human; conditions: MTT, 72 h, n = 3
# Experimental: (§1) The cytotoxicity of ethanolic extracts of stems, leaves, fractions, and substances isolated from the C. americana species was evaluated by the colorimetric MTT method in Vero cell lines (derived from African green monkey kidneys) and MRC-5 (derived from normal human lung tissue). The results of CC50 are described in Table 2.
# (§2) Cell suspensions (Vero and MRC-5) were distributed in 96-well microplates containing 6.0 × 10^4 cells/well. The plates were incubated in a humidified 5% CO2 atmosphere at 37 °C for 24 h. Samples solubilized in dimethyl sulfoxide (DMSO) were diluted in culture medium supplemented with 1% SFB [48, 49]. Substance dilutions ranged from 800 to 0.125 µg/mL. After the formation of the cell monolayer on the surface of the wells, the culture medium was removed, and 100 μL of diluted sample solutions along with 100 μL of 1% SFB-enriched culture medium were added, and the plates were incubated under the same atmospheric condition. Seventy-two hours after the addition of samples, the culture medium was removed, and 28.0 μL of MTT solution (2.0 mg/mL in PBS) was added to each well, and the plates were incubated again for 120 min. At the end of this period, 132 μL of DMSO was added to all wells, and the plates were shaken on a plate shaker for 15 min to dissolve the formed formazan. Formazan quantification obtained by reducing tetrazolium salt in viable cells was performed on a Victor^TM X3 microplate reader® (PerkinElmer, Waltham, MA, USA) using the WorkOut 2.5 software at 490 nm. Cell multiplication was compared with cell control. Cell toxicity was expressed in terms of 50% cytotoxic concentration (CC50). The cytotoxic percentage was calculated as [(A-B)/A] × 100, where A and B are the optical densities at 490 nm (OD490) from the wells where untreated (A) and treated (B) cells are present, respectively.
# (§3) Data from cytotoxicity and antiviral assays were evaluated according to their means and standard deviations. The cytotoxic concentration at 50% and the effective concentration at 50% were determined compared with the control obtained from nonlinear regression. […]
# Vero cells = assay: Cytotoxicity evaluation by MTT assay in Vero cells; type: cell-based, African green monkey; conditions: MTT, 72 h, n = 3
# Experimental: (§4) The cytotoxicity of ethanolic extracts of stems, leaves, fractions, and substances isolated from the C. americana species was evaluated by the colorimetric MTT method in Vero cell lines (derived from African green monkey kidneys) and MRC-5 (derived from normal human lung tissue).
# as §2
# (§5) Data from cytotoxicity and antiviral assays were evaluated according to their means and standard deviations. […] These analyses were performed using the GraphPad Prism 5.04 statistical package® (GraphPad Software, Boston, MA, USA).
# Zika virus [1] = assay: Screening for anti-Zika virus activity by MTT colorimetric technique in infected Vero cells; type: cell-based; conditions: for SI Vero: ratio of CC50 (Vero) to EC50; for EC50: ZIKV-infected Vero cells, MTT
# Experimental: After the determination of optimal noncytotoxic use concentrations, assays were performed, treating ZIKV-infected Vero cells with eight concentrations from the noncytotoxic concentrations for each sample. The results of the 50% effective concentration (EC50—concentration of the substance capable of reducing the viral cytopathic effect by 50%) and selectivity index (SI) are described in Table 2.
# It was performed according to the methodology described by Brandão et al.. Sample stock solutions were prepared in DMSO (dimethyl sulfoxide) and evaluated at noncytotoxic concentrations. Vero cell monolayers were cultured in 96-well plates (6 × 10^4 cells per well). After 24 h of incubation in 5% CO2 at 37 °C, the culture medium (DMEM 5% SFB) was removed, and 100.0 μL of sample dilutions were added to each well along with 100.0 μL of the viral suspension. Then, the cultures were incubated in a humid atmosphere containing 5% CO2 at 37 °C for 72 h. Cell viability was assessed by the MTT colorimetric technique. The supernatant was removed, and then 28.0 μL of an MTT solution (2.0 mg/mL in PBS) was added to each well. The plates were incubated for 2 h at 37 °C, and after this incubation time, 132.0 μL DMSO was added to each well to dissolve the formazan crystals. The plates were stirred for 15 min (Shaker New Brunswick Scientific C24), and the optical density was determined at 490 nm (OD490) in a microplate reader.
# The effective concentration that has 50% antiviral effect, or 50% effective concentration (EC50), is expressed as the concentration that promotes the protection of 50% of treated cells from destruction caused by the virus. The percentage of protection was calculated as [(AB)/CB)] × 100, where A, B, and C are the OD490 of the wells, in which are present treated and infected (A), untreated and infected (B), and untreated and non-infected cells (C), respectively.
# Data from cytotoxicity and antiviral assays were evaluated according to their means and standard deviations. The cytotoxic concentration at 50% and the effective concentration at 50% were determined compared with the control obtained from nonlinear regression. These analyses were performed using the GraphPad Prism 5.04 statistical package® (GraphPad Software, Boston, MA, USA).
# [2] = Cytotoxicity evaluation by MTT assay in Vero cells; type: cell-based, African green monkey; conditions: African green monkey
# Experimental: as §4, §2, §5
# Zika virus [3] = assay: In vitro cytopathic effect inhibition assay in ZIKV-infected Vero cell monolayer; type: cell-based; conditions: Vero cells, MOI = 1, treated after infection, quercetin 20 µg/mL, leaf extract 85 µg/mL, photographed after 48 h
# Experimental: This can be seen by the destruction and morphological alterations of the cells, such as rounding of cells, formation of lumps, and changes in cell refringence, especially when compared with the uninfected and untreated cell monolayer (Figure 4A).
# Figure 4 Antiviral effect against Zika virus in Vero cells treated with ethanol extract of leaves and quercetin. Vero cells were infected with ZIKV, treated with ethanol extract of leaves/quercetin, and photographed after 48 h of infection. (A) Uninfected and untreated cells, (B) infected cells, (C) cells uninfected and treated with ethanol extract of leaves (85 µg/mL), (D) cells infected and treated with ethanol extract of leaves (85 µg/mL), (E) cells uninfected and treated with quercetin (20 µg/mL), (F) cells infected and treated with quercetin (20 µg/mL). Magnification, 100x.
# In order to confirm the anti-ZIKV activity observed in the antiviral MTT assay, the Vero cell monolayer (9.5 × 10^6 cells per well) was infected by viral suspensions with titers of 1.0 × 10^7 TCID50/mL, (MOI = 1), Zika virus, during 1 h for the viral adsorption. Afterwards, the viral suspension was removed and the wells were washed with PBS. Then, the wells were treated with the active concentration of the compound (20 μg/mL) and ethanolic extract of leaves of C. americana (85 μg/mL). […]
# [4] = Cytotoxicity evaluation by MTT assay in MRC-5 cells; type: cell-based, human; conditions: human
# Experimental: as §1, §2, §3
# [5] = Zika virus, 72 h, n = 3, read-out: EC50 (converted)
molecule,measurement,setting,value
Quercetin-3-O-hexosylgallate,CC50,MRC-5 cells,> 162 µM
same,CC50 MRC-5,MRC-5 cells,> 100 mg/L
same,CC50,Vero cells,496 µM
same,CC50 Vero,Vero cells,305.6 ± 1.4 mg/L
same,SI MRC-5,Zika virus [1]; ratio of CC50 (MRC-5) to EC50,>0.7
same,SI Vero,Zika virus [1],2.0
O=c1c(O)c(-c2ccc(O)c(O)c2)oc2cc(O)cc(O)c12 [Quercetin],CC50 at 72 h,"[2]; MTT, 72 h, n = 3, read-out: CC50 Vero (converted)",71.3 µg/mL and 236 µM
same,EC50,Zika virus [1]; [5],18.6 µg/mL and 61.6 µM
same,EC50,"Zika virus [1]; Zika virus, read-out: EC50, inhibition of the viral cytopathic effect (abstract, unit inferred)",18.6 ± 2.8 mg/L
same,SI Vero,Zika virus [1],3.8
same,protection of ZIKV-infected cell monolayer from viral cytopathic effect,Zika virus [3],protect the cells from a virus infection
"NC(=O)c1ncn([C@@H]2O[C@H](CO)[C@@H](O)[C@H]2O)n1 [Ribavirin, reference compound]",CC50 at 72 h,"[2]; Vero cells, MTT, 72 h, n = 3, read-out: CC50 Vero (converted)",370.4 ± 1.2 mg/L
same,EC50,Zika virus [1]; [5],94.5 µg/mL and 387 µM
O=c1c(O[C@@H]2O[C@H](CO)[C@@H](O)[C@H](O)[C@H]2O)c(-c2ccc(O)c(O)c2)oc2cc(O)cc(O)c12 [Quercetin-3-O-glucoside],CC50 at 72 h,[4],> 100 µg/mL and > 216 µM
same,CC50 at 72 h,[2],> 100 µg/mL and > 216 µM
same,EC50,"Zika virus [1]; 72 h, n = 3",Inactive
same,EC50,Zika virus [1]; [5],> 100 mg/L
